# How the values were obtained:
# brain = assay: Matured TTM-001 and TTM-002 variants, NGS enrichment in mouse brain; type: in vivo, mice; conditions: relative to AAV9 control
# [1] = system: brains, heart, liver, muscle, and DRG of the NHPs; assay: Maturation of TTM-001 and TTM-002 capsids, NGS enrichment in NHP tissues; type: in vivo; conditions: relative to AAV9 control
# Procedure, shortened: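 Variants carry mutations within and flanking the loop IV peptide insert: positions 450–466 were triplet-randomized, while positions 449–466 received low-frequency point mutations. The combined pool went into two NHPs, and each peptide was scored by NGS enrichment ratio against AAV9.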
# [2] = NGS fold-enrichment of matured AAV capsid variants, NHP brain, RNA
# [3] = NGS fold-enrichment, mouse brain
# [4] = NGS fold-enrichment of RNA, NHP brain
# [5] = NGS fold-enrichment, NHP liver DNA
# [6] = NGS fold-enrichment, NHP liver RNA
# [7] = NGS fold-enrichment, NHP muscle
# [8] = NGS fold-enrichment, brain of mice
# [9] = NGS fold-enrichment, DRG of NHPs
# [10] = NGS fold-enrichment, RNA, brain of NHPs
# [11] = NGS fold-enrichment, heart of NHPs
# [12] = NGS fold-enrichment, liver DNA of NHPs
# [13] = NGS fold-enrichment, liver RNA of NHPs
# [14] = NGS fold-enrichment, muscle of NHPs
Sequence,"Fold Enrichment relative to AAV9, Brain (Mouse) (brain; [3]) [fold]","Fold Enrichment relative to AAV9, Brain (NHP) [1, 4] [fold]","Fold Enrichment relative to AAV9, DRG (NHP) ([1]; NGS fold-enrichment, NHP DRG) [fold]","Fold Enrichment relative to AAV9, Heart (NHP) ([1]; NGS fold-enrichment, NHP heart) [fold]","Fold Enrichment relative to AAV9, Liver DNA (NHP) [1, 5] [fold]","Fold Enrichment relative to AAV9, Liver RNA (NHP) [1, 6] [fold]","Fold Enrichment relative to AAV9, Muscle (NHP) [1, 7] [fold]","Fold Enrichment relative to AAV9, Brain (Mouse) (brain; [8]) [fold]","Fold Enrichment relative to AAV9, DRG (NHP) [1, 9] [fold]","Fold Enrichment relative to AAV9, Brain (NHP) [1, 10] [fold]","Fold Enrichment relative to AAV9, Heart (NHP) [1, 11] [fold]","Fold Enrichment relative to AAV9, Liver DNA (NHP) [1, 12] [fold]","Fold Enrichment relative to AAV9, Liver RNA (NHP) [1, 13] [fold]","Fold Enrichment relative to AAV9, Muscle (NHP) [1, 14] [fold]",other results
KTSNGSGSPHSKAQNQST,–,–,–,–,–,–,–,–,–,–,–,–,–,–,"Fold Enrichment relative to AAV9, Brain (Mouse) (brain; mouse brain): 120.897 fold; Fold Enrichment relative to AAV9, Brain (NHP) [1, 2]: 53.353 fold; Fold Enrichment relative to AAV9, DRG (NHP) ([1]; NHP DRG): 0.000 fold; Fold Enrichment relative to AAV9, Heart (NHP) ([1]; NHP heart): 0.000 fold; Fold Enrichment relative to AAV9, Liver DNA (NHP) ([1]; NHP liver, DNA): 0.014 fold; Fold Enrichment relative to AAV9, Liver RNA (NHP) ([1]; NHP liver, RNA): 0.000 fold; Fold Enrichment relative to AAV9, Muscle (NHP) ([1]; NHP muscle): 0.000 fold"
KTSNGSGSPHSKAQNYQT,–,–,–,–,–,–,–,–,–,–,–,–,–,–,"Fold Enrichment relative to AAV9, Brain (Mouse) (brain; mouse brain): 63.681 fold; Fold Enrichment relative to AAV9, Brain (NHP) [1, 2]: 57.894 fold; Fold Enrichment relative to AAV9, DRG (NHP) ([1]; NHP DRG): 0.000 fold; Fold Enrichment relative to AAV9, Heart (NHP) ([1]; NHP heart): 0.082 fold; Fold Enrichment relative to AAV9, Liver DNA (NHP) ([1]; NHP liver, DNA): 0.110 fold; Fold Enrichment relative to AAV9, Liver RNA (NHP) ([1]; NHP liver, RNA): 0.000 fold; Fold Enrichment relative to AAV9, Muscle (NHP) ([1]; NHP muscle): 0.000 fold"
KTSNGYDSPHKSGQKQQT,8.813,77.001,0.032,0.286,0.016,0.000,0.000,–,–,–,–,–,–,–,–
KTSSGSGSPHSKAQYQQT,58.143,87.304,0.000,0.000,0.299,0.000,0.000,58.143,0.000,87.304,0.000,0.299,0.000,0.000,–
KTSYGNGSPHSKAQNQQT,105.894,105.937,0.000,0.000,0.114,0.000,0.000,105.894,0.000,105.937,0.000,0.114,0.000,0.000,–
KTTNGHDSPHKSGQNLLT,15.192,77.738,0.130,0.064,0.326,0.424,0.185,–,–,–,–,–,–,–,–
KTTNGHDSPHKSGQNQQG,10.555,85.113,0.000,0.107,0.017,0.000,0.000,–,–,–,–,–,–,–,–
KTTNGHDSPHKSGQTQLT,17.885,115.637,0.000,0.283,0.321,0.052,0.000,–,–,–,–,–,–,–,–
KTTNGQDSPHKSGQNQQS,7.592,92.419,0.000,0.037,0.079,0.000,0.043,–,–,–,–,–,–,–,–
KTTNGSGSPHSKAHNQLT,–,–,–,–,–,–,–,65.505,0.000,69.062,0.000,0.000,0.708,0.000,–
KTTNGSGSPHSKAQYQHT,–,–,–,–,–,–,–,83.337,0.000,67.325,0.000,0.080,1.378,0.000,–
KTVDGHDSPHKSGQKQQT,7.200,78.802,0.000,0.069,0.342,0.157,0.000,–,–,–,–,–,–,–,–
KTVHGNGSPHSKAQNQQT,97.003,90.073,0.000,0.000,0.304,0.000,0.000,97.003,0.000,90.073,0.000,0.304,0.000,0.000,–
KTVHGSGSPHSKAQSQQT,–,–,–,–,–,–,–,–,–,–,–,–,–,–,"Fold Enrichment relative to AAV9, Brain (Mouse) (brain; mouse brain): 54.185 fold; Fold Enrichment relative to AAV9, Brain (NHP) [1, 2]: 51.057 fold; Fold Enrichment relative to AAV9, DRG (NHP) ([1]; NHP DRG): 0.000 fold; Fold Enrichment relative to AAV9, Heart (NHP) ([1]; NHP heart): 0.000 fold; Fold Enrichment relative to AAV9, Liver DNA (NHP) ([1]; NHP liver, DNA): 0.146 fold; Fold Enrichment relative to AAV9, Liver RNA (NHP) ([1]; NHP liver, RNA): 0.143 fold; Fold Enrichment relative to AAV9, Muscle (NHP) ([1]; NHP muscle): 0.000 fold"
KTVIGSGSPHSKALNQQT,–,–,–,–,–,–,–,60.369,0.000,62.358,0.310,0.245,0.062,0.000,–
KTVIGSGSPHSKSQNQQT,–,–,–,–,–,–,–,–,–,–,–,–,–,–,"Fold Enrichment relative to AAV9, Brain (Mouse) (brain; mouse brain): 69.121 fold; Fold Enrichment relative to AAV9, Brain (NHP) [1, 2]: 54.603 fold; Fold Enrichment relative to AAV9, DRG (NHP) ([1]; NHP DRG): 0.000 fold; Fold Enrichment relative to AAV9, Heart (NHP) ([1]; NHP heart): 0.000 fold; Fold Enrichment relative to AAV9, Liver DNA (NHP) ([1]; NHP liver, DNA): 0.106 fold; Fold Enrichment relative to AAV9, Liver RNA (NHP) ([1]; NHP liver, RNA): 0.000 fold; Fold Enrichment relative to AAV9, Muscle (NHP) ([1]; NHP muscle): 0.000 fold"
KTVKDSGSPHSKAQNQQT,–,–,–,–,–,–,–,87.334,0.000,60.216,0.019,0.251,0.443,0.000,–
KTVKGSGSPHSKAQDQQT,–,–,–,–,–,–,–,58.114,0.000,61.175,0.041,0.090,0.432,0.000,–
KTVNAHDSPHKSGQNQLT,29.254,79.137,0.000,0.233,0.045,0.753,0.178,–,–,–,–,–,–,–,–
KTVNASGSPHSKAQNQLT,–,–,–,–,–,–,–,–,–,–,–,–,–,–,"Fold Enrichment relative to AAV9, Brain (Mouse) (brain; mouse brain): 99.559 fold; Fold Enrichment relative to AAV9, Brain (NHP) [1, 2]: 51.249 fold; Fold Enrichment relative to AAV9, DRG (NHP) ([1]; NHP DRG): 0.000 fold; Fold Enrichment relative to AAV9, Heart (NHP) ([1]; NHP heart): 0.000 fold; Fold Enrichment relative to AAV9, Liver DNA (NHP) ([1]; NHP liver, DNA): 0.268 fold; Fold Enrichment relative to AAV9, Liver RNA (NHP) ([1]; NHP liver, RNA): 0.000 fold; Fold Enrichment relative to AAV9, Muscle (NHP) ([1]; NHP muscle): 0.000 fold"
KTVNGGGSPHSKAQHQQT,–,–,–,–,–,–,–,–,–,–,–,–,–,–,"Fold Enrichment relative to AAV9, Brain (Mouse) (brain; mouse brain): 138.544 fold; Fold Enrichment relative to AAV9, Brain (NHP) [1, 2]: 58.602 fold; Fold Enrichment relative to AAV9, DRG (NHP) ([1]; NHP DRG): 0.729 fold; Fold Enrichment relative to AAV9, Heart (NHP) ([1]; NHP heart): 0.000 fold; Fold Enrichment relative to AAV9, Liver DNA (NHP) ([1]; NHP liver, DNA): 0.043 fold; Fold Enrichment relative to AAV9, Liver RNA (NHP) ([1]; NHP liver, RNA): 0.000 fold; Fold Enrichment relative to AAV9, Muscle (NHP) ([1]; NHP muscle): 0.000 fold"

# Source: US20260250318A1, “COMPOSITIONS AND METHODS FOR CROSSING THE BLOOD BRAIN BARRIER” (VOYAGER THERAPEUTICS, INC., priority 2022, published 2026)
